Laboratory results from patent US11202836B2, “PSMA targeted conjugate compounds and uses thereof” (CASE WESTERN RESERVE UNIVERSITY, priority 2018, dated 2021).
*1 amine or outer side, *2 acyl side, *3 side chain or, on linkers, in order; H or OH if unused. Where a SMILES comes first, the peptide text is derived from it. [ ]: non-standard residue; d: D form. γGlu = O=C(O)[C@H](CCC(=O)[*:2])N[*:1]; X1 = O=C(C1CCC(CN[*:1])CC1)[*:2]; CO = O=C([*:1])[*:2]; Ahx = NCCCCCC(=O)O

Experiments:
PSMA = biological target: T1, PSMA (Homo sapiens, UniProt Q04609); test: Competitive binding assay against 3H-ZJ24 on PC3pip cells; settings: 10 nM 3H-ZJ24, read-out: IC50, competition binding to PSMA
T1 construct: expressed in transfected cells; host or cells: PC3pip cells (retrovirally transfected, from Dr. Michel Sadelain, MSKCC)
Protocol: The assay was carried as previously reported by incubation PC3pip cells with different concentrations of drug conjugates in the presence of 10 nM N—[N—[(S)-1,3-dicarboxypropyl]carbamoyl]-S-[^3H]-methyl-L-cysteine (^3H-ZJ24) (GE Healthcare Life Sciences, Pittsburgh, Pa.). Radioactivity of cell pellet was counted by scintillation counter. The concentration required to inhibit 50% of binding was determined (IC50) by GraphPad Prism 3.0.

PC3Pip and PC3Flu cells = test: Example 1 in vitro cellular uptake (doxorubicin fluorescence microscopy); type: cell-based; settings: 1 μM, 90 minutes or 48 hours
Protocol: PC3Pip and PC3flu cells (1.5×10^5) were plated on coverslips and allowed to adhere for 36-48 hours. Cells were incubated in 1 μM of free doxorubicin or the various PSMA-1-Doxorubicin conjugates in RPMI media. Similar experiments are reported widely in the literature, with doses usually in the μM range because of doxorubicin's relatively dim fluorescence, at least compared with some of the commercially available dyes used in our lab. This dose was chosen to balance that relatively dim fluorescence with a goal of attempting to maintain selectivity.
Next, cells were washed 3 times with RPMI media, fixed with 4% paraformaldehyde for 10 minutes, and washed twice with phosphate-buffered saline (PBS). The cells were counterstained with DAPI nuclear staining, mounted on microscope slides with a 50% mounting solution mixture of PBS and glycol, and the coverslips were sealed with clear nail polish. Fluorescent imaging was performed with Leica DM4000B fluorescence microscopy. DAPI imaging used the Blue filter with excitation/emission at 410/455 nm. Doxorubicin was imaged with the Texas Red filter with Ex/Em 587/612 nm.

PC3flu cells = test: Example 1 cytotoxicity assay (Dojindo CCK8), PSMA-negative cells; type: cell-based; settings: continuous 48 hours
Protocol: (§1) PC3Pip and PC3Flu cells (2000 cells/100 μL/well) were plated in 96 well plates and rested for 24 hours to adhere to the plate surface. To each well, we added 10 μL of an 11× concentrated solution of doxorubicin or conjugate. Each drug dose was tested in groups of six wells. Dojindo CCK8 assays were used to determine relative cell survival of treated wells compared with untreated controls. This is a […] assay for determination of cell viability and proliferation. A water-soluble tetrazolium salt, WST-8, is reduced by dehydrogenase activity in the cell which produces an orange dye with relative amounts quantified by absorbance. Briefly, 10 μL assay solution was added to each well, the plate was left to incubate while orange color was produced, the absorption of the solution in the plate was read at 450 nm, and the cell viabilities were calculated.

PC3pip cells = test: Example 1 cytotoxicity assay (Dojindo CCK8), PSMA-expressing cells; type: cell-based; settings: continuous 48 hours
Protocol: as §1

PC3Pip flank tumors = test: Example 1 mouse PC3Pip flank tumor xenograft study; type: in vivo, mice; settings: 2 mg/kg doxorubicin or molar equivalent, day 0, 7, 14, i.v.
Protocol: All animal procedures were performed according to the protocols approved by the Institutional Animal Care and Use Committee (IACUC). Our approval is Case Western Reserve University IACUC #2015-0033. Athymic nude mice aged 6-8 weeks were implanted subcutaneously with 1×10^6 PC3Pip cells in 100 μL Matrigel on the right flank. Tumors were allowed to grow for two weeks. Mice were then treated with three doses of free doxorubicin or PSMA-1-MMCCH-Dox in PBS on day 0, 7, and 14 of the study via tail vein injection. Dose used was 2 mg/kg doxorubicin, or the equivalent molar dosage of the PSMA-targeted prodrug. Tumor dimensions were measured using calipers twice per week, and mouse weights were recorded on these days, as well. The study duration was 21 days.

T1 sequence (Q04609 whole entry): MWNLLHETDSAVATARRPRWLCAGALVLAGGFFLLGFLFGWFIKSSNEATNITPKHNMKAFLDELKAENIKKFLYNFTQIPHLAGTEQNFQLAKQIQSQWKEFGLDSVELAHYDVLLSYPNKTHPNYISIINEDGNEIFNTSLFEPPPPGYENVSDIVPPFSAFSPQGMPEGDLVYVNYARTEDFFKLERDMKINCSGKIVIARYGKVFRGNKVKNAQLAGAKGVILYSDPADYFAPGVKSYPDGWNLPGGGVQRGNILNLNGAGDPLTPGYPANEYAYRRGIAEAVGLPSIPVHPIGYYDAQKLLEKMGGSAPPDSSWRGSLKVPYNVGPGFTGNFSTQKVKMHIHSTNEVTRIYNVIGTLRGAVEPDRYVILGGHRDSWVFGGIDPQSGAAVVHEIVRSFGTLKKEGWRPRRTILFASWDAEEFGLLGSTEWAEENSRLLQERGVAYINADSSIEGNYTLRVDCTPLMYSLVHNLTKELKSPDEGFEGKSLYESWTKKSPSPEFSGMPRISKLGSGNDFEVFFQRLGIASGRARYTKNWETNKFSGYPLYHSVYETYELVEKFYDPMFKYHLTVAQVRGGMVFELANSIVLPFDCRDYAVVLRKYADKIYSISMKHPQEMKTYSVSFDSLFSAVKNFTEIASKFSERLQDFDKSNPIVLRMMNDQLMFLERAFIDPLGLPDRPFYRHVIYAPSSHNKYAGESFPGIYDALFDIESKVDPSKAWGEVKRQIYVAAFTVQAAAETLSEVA

IC50 (PSMA) [nM]	weight loss over the duration of the study (PC3Pip flank tumors; 21 days) [%]	Structure (SMILES)	subcellular pattern of doxorubicin signal (PC3Pip and PC3Flu cells)	uptake in PC3Pip compared with PC3Flu cells (PC3Pip and PC3Flu cells)	growth inhibition of PC3Flu cells (PC3flu cells)	growth inhibition of PC3Pip cells (PC3pip cells)	tumor growth (PC3Pip flank tumors)
2.3	–	NCCCC[C@H](NC(=O)[C@H](CCC(=O)O)NC(=O)[C@H](CCC(=O)O)NC(=O)[C@H](CCC(=O)O)NC(=O)CCCCCNC(=O)C1CCC(CNC(=O)CC[C@H](NC(=O)N[C@@H](CCC(=O)O)C(=O)O)C(=O)O)CC1)C(N)=O (some centres unmarked) [PSMA-1] ({Glu-CO-γGlu}-[X1][Ahx]EEEK-NH2; C-terminus assumed)	–	–	–	–	–
11.7	–	CSC[C@H](NC(=O)N[C@@H](CCC(=O)O)C(=O)O)C(=O)O [ZJ24, reference compound]	–	–	–	–	–
–	17.3	COc1cccc2c1C(=O)c1c(O)c3c(c(O)c1C2=O)C[C@@](O)(C(=O)CO)C[C@@H]3O[C@H]1C[C@H](N)[C@H](O)[C@H](C)O1 [doxorubicin]	primarily in the nucleus	equally seen in PC3Pip and PC3Flu cell lines	potent, equal growth inhibition	potent, equal growth inhibition	more rapid tumor growth
